# US8912121B2, “Herbicidal compositions comprising 4-amino-3-chloro-5-fluoro-6-(4-chloro-2-fluoro-3-methoxyphenyl)pyridine-2-carboxylic acid or a derivative thereof and certain PS II inhibitors” (Dow Agrosciences LLC, priority 2012, dated 2014)
# Experiments:
# [1] = test system: CHEAL (Chenopodium album, common lambsquarters); test: Postemergence herbicidal activity of mixtures in cereal crops, greenhouse; type: in vivo, Chenopodium album L.
# Description: (§1) Seeds of the desired test plant species were planted in Sun Gro MetroMix® 306 planting mixture, which typically has a pH of 6.0 to 6.8 and an organic matter content of about 30 percent, in plastic pots with a surface area of 103.2 square centimeters (cm^2). When required to ensure good germination and healthy plants, a fungicide treatment and/or other chemical or physical treatment was applied. The plants were grown for 7-36 days in a greenhouse with an approximate 14 hour photoperiod which was maintained at about 18° C. during the day and about 17° C. during the night. Nutrients and water were added on a regular basis and supplemental lighting was provided with overhead metal halide 1000-Watt lamps as necessary. The plants were employed for testing when they reached the second or third true leaf stage.
# (§2) Treatments consisted of the benzyl ester of 4-amino-3-chloro-5-fluoro-6-(4-chloro-2-fluoro-3-methoxy-phenyl)pyridine-2-carboxylic acid (Compound A), formulated as an SC, a second cereal herbicide alone and then both in combination.
# (§3) Other herbicidal components were applied on an active ingredient basis and included PSII-inhibiting herbicides.
# (§4) Measured aliquots of benzyl ester of 4-amino-3-chloro-5-fluoro-6-(4-chloro-2-fluoro-3-methoxy-phenyl)pyridine-2-carboxylic acid (Compound A) were placed in 25 milliliter (mL) glass vials and diluted in a volume of 1.25% (v/v) Agri-Dex® crop oil concentrate to obtain stock solutions. Compound requirements are based upon a 12 mL application volume at a rate of 187 liters per hectare (L/ha). Spray solutions of the second cereal herbicide and experimental compound mixtures were prepared by adding the stock solutions to the appropriate amount of dilution solution to form 12 mL spray solution with active ingredients in two- and three-way combinations. Formulated compounds were applied to the plant material with an overhead Mandel track sprayer equipped with an 8002E nozzle calibrated to deliver 187 L/ha over an application area of 0.503 square meters (m^2) at a spray height of 18 inches (46 cm) above average plant canopy. Control plants were sprayed in the same manner with the solvent blank.
# (§5) The treated plants and control plants were placed in a greenhouse as described above and watered by sub-irrigation to prevent wash-off of the test compounds. After 20-22 days, the condition of the test plants as compared with that of the control plants was determined visually and scored on a scale of 0 to 100 percent where 0 corresponds to no injury and 100 corresponds to complete kill.
# Colby's equation was used to determine the herbicidal effects expected from the mixtures (Colby, S. R. 1967. Calculation of the synergistic and antagonistic response of herbicide combinations. Weeds 15:20-22). […]
# [2] = test system: GALAP (Galium aparine, catchweed bedstraw); test: as above; type: in vivo, Galium aparine L.
# Description: as §1, §2, §3, §4, §5
# Colby's equation was used to determine the herbicidal effects expected from the mixtures (Colby, S. R. 1967. Calculation of the synergistic and antagonistic response of herbicide combinations. Weeds 15:20-22).
# The following equation was used to calculate the expected activity of mixtures containing two active ingredients, A and B: Expected=A+B−(A×B/100)
# [3] = test system: ECHCO (Echinochloa colonum, junglerice); test: Pre-emergence soil-applied mixtures, greenhouse; type: in vivo, Echinochloa colonum (L.) Link
# Source text: Seeds or nutlets of the desired test plant species were planted in a soil matrix prepared by mixing a loam soil (32 percent silt, 23 percent clay, and 45 percent sand, with a pH of about 6.5 and an organic matter content of about 1.9 percent) and calcareous grit in an 80 to 20 ratio. The soil matrix was contained in plastic pots with a volume of 1 quart and a surface area of 83.6 square centimeters (cm^2).
# Treatments consisted of the benzyl ester of 4-amino-3-chloro-5-fluoro-6-(4-chloro-2-fluoro-3-methoxy-phenyl)pyridine-2-carboxylic acid (compound A) formulated as an SC (suspension concentrate) and various herbicidal components alone and in combination. Forms of compound A were applied on an acid equivalent basis.
# Other herbicidal components were applied on an acid equivalent or active ingredient basis and included the PSII-inhibiting herbicides, atrazine formulated as Atrazine® 90WDG, metribuzin formulated as Metribuzin 75DF, simazine formulated as Princep Caliber 90, tebuthiuron formulated as Spike 80DF, cyanazine (technical grade material), hexazinone (technical grade material), linuron (technical grade material), terbuthylazine (technical grade material), and diuron formulated as Diuron 4L.
# Treatment requirements were calculated based upon the rates being tested, the concentration of active ingredient or acid equivalent in the formulation, and a 12 mL application volume at a rate of 187 L/ha.
# For treatments comprised of formulated compounds, measured amounts of compounds were placed individually in 25 mL glass vials and diluted in a volume of 1.25% (v/v) Agri-Dex® crop oil concentrate (COC) to obtain 12× stock solutions. […]
# For treatments comprised of formulated and technical compounds, weighed amounts of the technical materials can be placed individually in 25 mL glass vials and dissolved in a volume of 97:3 (v/v) acetone/DMSO to obtain 12× stock solutions, and measured amounts of the formulated compounds can be placed individually in 25 mL glass vials and diluted in a volume of 1.5% (v/v) COC or water to obtain 12× stock solutions. […]
# [4] = Compound A Benzyl Ester 5 g ai/ha
smiles,measurement,setting,value
"COc1c(Cl)ccc(-c2nc(C(=O)OCc3ccccc3)c(Cl)c(N)c2F)c1F [Compound A Benzyl Ester, benzyl ester of 4-amino-3-chloro-5-fluoro-6-(4-chloro-2-fluoro-3-methoxy-phenyl)pyridine-2-carboxylic acid]",Visual Weed Control (%)-21 DAA CHEAL Obs,[1]; Compound A Benzyl Ester 2.5 g ai/ha,50%
same,Visual Weed Control (%)-21 DAA CHEAL Obs,[1]; [4],58%
same,Visual Weed Control (%) - 21 DAA GALAP Obs,[2]; [4],66%
same,Visual Weed Control (%) - 21 DAA GALAP Obs,[2]; Compound A Benzyl Ester 10 g ai/ha,77%
same,Visual Weed Control (%)-29 DAA ECHCO Obs,[3]; Compound A Benzyl Ester 16 g ae/ha,0%
same,Visual Weed Control (%)-29 DAA ECHCO Obs,[3]; Compound A Benzyl Ester 32 g ae/ha,5%
